Source: ChEMBL document CHEMBL3232964, “Quinone-carbohydrate nonglucoside conjugates as a new type of cytotoxic agents: synthesis and determination of in vitro activity” (Eur J Med Chem, 2014)
Active and inactive are the calls of the source. The rule behind the calls is not given here.

Key:
[1] = target: Cellular tumor antigen p53 (Mus musculus) (UniProt P02340); assay: Inhibition of p53-dependent transcriptional activity in tumor promotion-sensitive mouse JB6 Cl41 cells after 12 hrs by luciferase-based method; format: cell-based
Sequence of Cellular tumor antigen p53 (Mus musculus) (P02340 whole entry): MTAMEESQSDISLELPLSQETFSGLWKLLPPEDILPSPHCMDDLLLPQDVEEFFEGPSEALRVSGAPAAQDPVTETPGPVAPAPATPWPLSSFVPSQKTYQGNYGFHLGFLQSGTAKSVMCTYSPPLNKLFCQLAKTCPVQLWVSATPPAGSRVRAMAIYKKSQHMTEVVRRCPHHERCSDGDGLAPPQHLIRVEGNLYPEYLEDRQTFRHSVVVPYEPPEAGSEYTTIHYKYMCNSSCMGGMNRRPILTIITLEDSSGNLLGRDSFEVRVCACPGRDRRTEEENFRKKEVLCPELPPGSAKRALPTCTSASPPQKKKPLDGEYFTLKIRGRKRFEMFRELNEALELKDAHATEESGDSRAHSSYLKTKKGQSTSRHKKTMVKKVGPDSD

HeLa [2] = assay: Cytotoxicity against human HeLa cells assessed as cell viability after 24 hrs by MTS assay; format: functional, cell-based
HeLa [3] = assay: Cytotoxicity against human HeLa cells assessed as cell viability after 48 hrs by MTS assay; format: functional, cell-based
[4] = Cytotoxicity against tumor promotion-sensitive mouse JB6 Cl41 cells assessed as cell viability after 48 hrs by MTS assay; format: cell-based; details: JB6 Cl41, 48 h
HeLa [5] = assay: Cytotoxicity against human HeLa cells assessed as inhibition of number of colonies formed in soft agar after 14 days by microscopic analysis; format: functional
HeLa [6] = assay: Ratio of IC50 to INCC50 for human HeLa cells; format: functional
[7] = Induction of apoptosis in tumor promotion-sensitive mouse JB6 Cl41 cells assessed as viable cells at 2.5 uM after 24 hrs by Annexin-V-FITC/propidium iodide staining based flow cytometry (reference value: 94.33 +/- 0.87%); format: cell-based; details: read-out: Activity
[8] = Induction of apoptosis in tumor promotion-sensitive mouse JB6 Cl41 cells assessed as dead cells at 2.5 uM after 24 hrs by Annexin-V-FITC/propidium iodide staining based flow cytometry (reference value: 2.99 +/- 0.82%); format: cell-based; details: jb6 cl41, 24 h
[9] = Induction of apoptosis in tumor promotion-sensitive mouse JB6 Cl41 cells assessed as early apoptotic cells at 5 uM after 24 hrs by Annexin-V-FITC/propidium iodide staining based flow cytometry (reference value: 2.15 +/- 1.18%); format: cell-based; details: jb6 cl41, 24 h
[10] = Induction of apoptosis in tumor promotion-sensitive mouse JB6 Cl41 cells assessed as late apoptotic/necrotic cells at 5 uM after 24 hrs by Annexin-V-FITC/propidium iodide staining based flow cytometry (reference value: 0.53 +/- 0.47%); format: cell-based; details: jb6 cl41, 24 h
[11] = Induction of apoptosis in tumor promotion-sensitive mouse JB6 Cl41 cells assessed as viable cells at 5 uM after 24 hrs by Annexin-V-FITC/propidium iodide staining based flow cytometry (reference value: 94.33 +/- 0.87%); format: cell-based; details: read-out: Activity
[12] = Induction of apoptosis in tumor promotion-sensitive mouse JB6 Cl41 cells assessed as dead cells at 5 uM after 24 hrs by Annexin-V-FITC/propidium iodide staining based flow cytometry (reference value: 2.99 +/- 0.82%); format: cell-based; details: jb6 cl41, 24 h
[13] = Induction of apoptosis in tumor promotion-sensitive mouse JB6 Cl41 cells assessed as early apoptotic cells at 10 uM after 24 hrs by Annexin-V-FITC/propidium iodide staining based flow cytometry (reference value: 2.15 +/- 1.18%); format: cell-based; details: jb6 cl41, 24 h
[14] = Induction of apoptosis in tumor promotion-sensitive mouse JB6 Cl41 cells assessed as late apoptotic/necrotic cells at 10 uM after 24 hrs by Annexin-V-FITC/propidium iodide staining based flow cytometry (reference value: 0.53 +/- 0.47%); format: cell-based; details: jb6 cl41, 24 h
[15] = Induction of apoptosis in tumor promotion-sensitive mouse JB6 Cl41 cells assessed as viable cells at 10 uM after 24 hrs by Annexin-V-FITC/propidium iodide staining based flow cytometry (reference value: 94.33 +/- 0.87%); format: cell-based; details: read-out: Activity
[16] = Induction of apoptosis in tumor promotion-sensitive mouse JB6 Cl41 cells assessed as dead cells at 10 uM after 24 hrs by Annexin-V-FITC/propidium iodide staining based flow cytometry (reference value: 2.99 +/- 0.82%); format: cell-based; details: jb6 cl41, 24 h
HeLa [17] = assay: Induction of p53-independent apoptosis in human HeLa cells assessed as early apoptotic cells at 2.5 uM after 24 hrs by Annexin-V-FITC/propidium iodide double staining based flow cytometry (reference value: 6.71 +/- 4.41%); format: functional
HeLa [18] = assay: Induction of p53-independent apoptosis in human HeLa cells assessed as late apoptotic/necrotic cells at 2.5 uM after 24 hrs by Annexin-V-FITC/propidium iodide double staining based flow cytometry (reference value: 0.88 +/- 0.72%); format: functional
HeLa [19] = assay: Induction of p53-independent apoptosis in human HeLa cells assessed as viable cells at 2.5 uM after 24 hrs by Annexin-V-FITC/propidium iodide double staining based flow cytometry (reference value: 88.52 +/- 11%); format: functional; details: read-out: Activity
HeLa [20] = assay: Induction of p53-independent apoptosis in human HeLa cells assessed as dead cells at 2.5 uM after 24 hrs by Annexin-V-FITC/propidium iodide double staining based flow cytometry (reference value: 3.89 +/- 0.3%); format: functional
HeLa [21] = assay: Induction of p53-independent apoptosis in human HeLa cells assessed as early apoptotic cells at 5 uM after 24 hrs by Annexin-V-FITC/propidium iodide double staining based flow cytometry (reference value: 6.71 +/- 4.41%); format: functional
HeLa [22] = assay: Induction of p53-independent apoptosis in human HeLa cells assessed as late apoptotic/necrotic cells at 5 uM after 24 hrs by Annexin-V-FITC/propidium iodide double staining based flow cytometry (reference value: 0.88 +/- 0.72%); format: functional
HeLa [23] = assay: Induction of p53-independent apoptosis in human HeLa cells assessed as viable cells at 5 uM after 24 hrs by Annexin-V-FITC/propidium iodide double staining based flow cytometry (reference value: 88.52 +/- 11%); format: functional; details: read-out: Activity
HeLa [24] = assay: Induction of p53-independent apoptosis in human HeLa cells assessed as dead cells at 5 uM after 24 hrs by Annexin-V-FITC/propidium iodide double staining based flow cytometry (reference value: 3.89 +/- 0.3%); format: functional
HeLa [25] = assay: Induction of p53-independent apoptosis in human HeLa cells assessed as early apoptotic cells at 10 uM after 24 hrs by Annexin-V-FITC/propidium iodide double staining based flow cytometry (reference value: 6.71 +/- 4.41%); format: functional
HeLa [26] = assay: Induction of p53-independent apoptosis in human HeLa cells assessed as late apoptotic/necrotic cells at 10 uM after 24 hrs by Annexin-V-FITC/propidium iodide double staining based flow cytometry (reference value: 0.88 +/- 0.72%); format: functional
HeLa [27] = assay: Induction of p53-independent apoptosis in human HeLa cells assessed as viable cells at 10 uM after 24 hrs by Annexin-V-FITC/propidium iodide double staining based flow cytometry (reference value: 88.52 +/- 11%); format: functional; details: read-out: Activity
HeLa [28] = assay: Induction of p53-independent apoptosis in human HeLa cells assessed as dead cells at 10 uM after 24 hrs by Annexin-V-FITC/propidium iodide double staining based flow cytometry (reference value: 3.89 +/- 0.3%); format: functional
[29] = Induction of apoptosis in tumor promotion-sensitive mouse JB6 Cl41 cells assessed as early apoptotic cells at 2.5 uM after 24 hrs by Annexin-V-FITC/propidium iodide staining based flow cytometry (reference value: 2.15 +/- 1.18%); format: cell-based; details: jb6 cl41, 24 h
[30] = Induction of apoptosis in tumor promotion-sensitive mouse JB6 Cl41 cells assessed as late apoptotic/necrotic cells at 2.5 uM after 24 hrs by Annexin-V-FITC/propidium iodide staining based flow cytometry (reference value: 0.53 +/- 0.47%); format: cell-based; details: jb6 cl41, 24 h

O=C1C=C(O)C(=O)c2c(O)ccc(O)c21
inhibition [1]: Active
IC50 (HeLa [2]): 42.4 µM
IC50 (HeLa [3]): 37.9 µM
IC50 [4]: 71.2 µM
INCC50 (HeLa [5]): 8.06 µM
Ratio (HeLa [6]): 4.71

COC1=CC(=O)c2c(O)cccc2C1=O
inhibition [1]: Active
IC50 (HeLa [2]): 1.18 µM
IC50 (HeLa [3]): 1.29 µM
IC50 [4]: 1.93 µM
INCC50 (HeLa [5]): 0.59 µM
Ratio (HeLa [6]): 2.19

CO[C@H]1O[C@H](COC2=CC(=O)c3c(O)cccc3C2=O)[C@@H](O)[C@H](O)[C@H]1O
viability at 24 h, 2.5 µM [7]: 94.3%
Activity [8]: 2.35%
Activity [9]: 15.33%
Activity [10]: 1.93%
viability at 24 h, 5 µM [11]: 79.4%
Activity [12]: 3.36%
Activity [13]: 82.93%
Activity [14]: 2.01%
viability at 24 h, 10 µM [15]: 13.3%
Activity [16]: 1.76%
inhibition [1]: Active
IC50 (HeLa [2]): 5.2 µM
IC50 (HeLa [3]): 5.22 µM
IC50 [4]: 6.54 µM
INCC50 (HeLa [5]): 1.68 µM
Ratio (HeLa [6]): 3.11
Activity (HeLa [17]): 10.42%
Activity (HeLa [18]): 1.44%
viability at 2.5 µM (HeLa [19]): 84.7%
Activity (HeLa [20]): 3.47%
Activity (HeLa [21]): 13.09%
Activity (HeLa [22]): 1.38%
viability at 5 µM (HeLa [23]): 82.8%
Activity (HeLa [24]): 2.73%
Activity (HeLa [25]): 32.33%
Activity (HeLa [26]): 26.07%
viability at 10 µM (HeLa [27]): 20.1%
Activity (HeLa [28]): 21.48%
Activity [29]: 2.77%
Activity [30]: 0.62%

O=C1C=C(O)c2c(O)cccc2C1=O
inhibition [1]: Active
IC50 (HeLa [2]): 196 µM
IC50 (HeLa [3]): 187 µM
IC50 [4]: > 200 µM
INCC50 (HeLa [5]): 109.37 µM
Ratio (HeLa [6]): 1.71

COC1=CC(=O)c2cccc(O)c2C1=O
inhibition [1]: Active
IC50 (HeLa [2]): 0.96 µM
IC50 (HeLa [3]): 1.04 µM
IC50 [4]: 1.48 µM
INCC50 (HeLa [5]): 0.61 µM
Ratio (HeLa [6]): 1.7

O=C1C=CC(=O)c2c(O)cccc21 [JUGLONE]
inhibition [1]: Active
IC50 (HeLa [2]): 68.5 µM
IC50 (HeLa [3]): 65.5 µM
IC50 [4]: 34.3 µM
INCC50 (HeLa [5]): 39.04 µM
Ratio (HeLa [6]): 1.67

O=C1C=C(O)c2cccc(O)c2C1=O
inhibition [1]: Active
IC50 (HeLa [2]): 124 µM
IC50 (HeLa [3]): 118 µM
IC50 [4]: 193 µM
INCC50 (HeLa [5]): 35.51 µM
Ratio (HeLa [6]): 3.33

COC1=CC(=O)c2c(O)ccc(O)c2C1=O
inhibition [1]: Active
IC50 (HeLa [2]): 1.8 µM
IC50 (HeLa [3]): 2.16 µM
IC50 [4]: 2.49 µM
INCC50 (HeLa [5]): 0.73 µM
Ratio (HeLa [6]): 2.97

CO[C@H]1O[C@H](COC2=CC(=O)c3cccc(O)c3C2=O)[C@@H](O)[C@H](O)[C@H]1O
viability at 24 h, 2.5 µM [7]: 91.3%
Activity [8]: 2.63%
Activity [9]: 74.65%
Activity [10]: 1.06%
viability at 24 h, 5 µM [11]: 21.2%
Activity [12]: 3.07%
inhibition [1]: Active
IC50 (HeLa [2]): 2.34 µM
IC50 (HeLa [3]): 2.82 µM
IC50 [4]: 4.92 µM
INCC50 (HeLa [5]): 1.47 µM
Ratio (HeLa [6]): 1.92
Activity (HeLa [17]): 27.57%
Activity (HeLa [18]): 9.27%
viability at 2.5 µM (HeLa [19]): 54.8%
Activity (HeLa [20]): 8.37%
Activity (HeLa [21]): 18.51%
Activity (HeLa [22]): 32.74%
viability at 5 µM (HeLa [23]): 24.7%
Activity (HeLa [24]): 24.08%
Activity [29]: 4.81%
Activity [30]: 1.28%
